Laboratory results from paper PMC10193574 (ACS Omega, 2023).
Values after ≈ are worked out from the molar mass of the structure shown. Like-named read-outs stand apart in the source and are kept apart here. Blank lines part the entries; values can stand above or below the compound they belong to.

Columns and labels:
A. baumannii (ATCC19606) = assay: Antibacterial MIC, broth growth inhibition OD600; assay type: cell-based, Acinetobacter baumannii
[1] = system: C. neoformans (ATCC 208821); assay: Antifungal MIC, growth inhibition; assay type: cell-based; settings: Cryptococcus neoformans, ATCC208821, read-out: MIC Cn
E. coli (ATCC25922) = assay: Antibacterial MIC, broth growth inhibition OD600; assay type: cell-based, Escherichia coli; settings: for MIC: Escherichia coli, ATCC25922, read-out: MIC Ec
C. albicans (ATCC90028) = assay: Antifungal MIC, growth inhibition; assay type: cell-based; settings: Candida albicans
[2] = system: P. aeruginosa (ATCC27853); assay: Antibacterial MIC, broth growth inhibition OD600; assay type: cell-based, Pseudomonas aeruginosa
MRSA (ATCC43300) = assay: Antibacterial MIC, broth growth inhibition OD600; assay type: cell-based, Staphylococcus aureus; settings: MIC = ≥80% growth inhibition
[3] = system: E. coli, K. pneumoniae, P. aeruginosa, A. baumannii, MRSA, C. albicans, C. neoformans; assay: Antibacterial and antifungal MIC panel; assay type: cell-based
[4] = ATCC90028, read-out: MIC Ca, MIC = ≥80% growth inhibition

Compound: COc1cc2c(=O)c(C(=O)NCCNCCO)cn(Cc3ccccc3)c2cc1OCc1cccc(F)c1 [Compound 42, 1-Benzyl-7-[(3-fluorobenzyl)oxy]-N-{2-[(2-hydroxyethyl)amino]ethyl}-6-methoxy-4-oxo-1,4-dihydroquinoline-3-carboxamide]
- MIC (A. baumannii (ATCC19606); Acinetobacter baumannii, ATCC19606, read-out: MIC Ab): < 0.25 µg/mL
- MIC [1]: < 0.25 µg/mL
- MIC (E. coli (ATCC25922)): < 0.25 µg/mL
- MIC (C. albicans (ATCC90028); ATCC90028, read-out: MIC Ca): > 32 µg/mL
- MIC ([2]; Pseudomonas aeruginosa, ATCC27853, read-out: MIC Pa): < 0.25 µg/mL
- MIC MRSa (MRSA (ATCC43300)): >32 µg/mL

- MIC (E. coli (ATCC25922)): < 0.25 µg/mL
- MIC (C. albicans (ATCC90028); [4]): > 32 µg/mL
- MIC MRSa (MRSA (ATCC43300)): >32 µg/mL
Compound: CCn1cc(C(=O)NCCNCCO)c(=O)c2cc(OC)c(OCc3cc(F)cc(F)c3)cc21 [Compound 43, 7-[(3,5-Difluorobenzyl)oxy]-1-ethyl-N-{2-[(2-hydroxyethyl)amino]ethyl}-6-methoxy-4-oxo-1,4-dihydroquinoline-3-carboxamide]

- MIC (C. albicans (ATCC90028); [4]): 0.125 µg/mL (≈ 0.408 µM)
Compound: OC(Cn1cncn1)(Cn1cncn1)c1ccc(F)cc1F [fluconazole, reference compound]

- MIC Ab (A. baumannii (ATCC19606); MIC = ≥80% growth inhibition): 0.25 µg/mL
- MIC against Gram-negative bacteria (summary) [3]: 0.1 to 0.25 µg/mL
- MIC Ec (E. coli (ATCC25922); MIC = ≥80% growth inhibition): 0.12 µg/mL
- MIC Pa ([2]; MIC = ≥80% growth inhibition): 0.25 µg/mL
Compound: colistin [reference compound]
